IC50 data for 17 compounds are collected here from patent US8420823B2, “Long-chain fatty acyl elongase inhibitor comprising arylsulfonyl derivative as active ingredient” (MSD K.K., priority 2008, dated 2013).

One may read the IC50 as the midpoint of a concentration-inhibition curve. Lower therefore signals greater potency in that assay.

Counter-ions that a name gives are not always drawn.

The test deals with T1, human LCE (Homo sapiens, UniProt Q9H5J4).
T1 sequence (Q9H5J4 1-265): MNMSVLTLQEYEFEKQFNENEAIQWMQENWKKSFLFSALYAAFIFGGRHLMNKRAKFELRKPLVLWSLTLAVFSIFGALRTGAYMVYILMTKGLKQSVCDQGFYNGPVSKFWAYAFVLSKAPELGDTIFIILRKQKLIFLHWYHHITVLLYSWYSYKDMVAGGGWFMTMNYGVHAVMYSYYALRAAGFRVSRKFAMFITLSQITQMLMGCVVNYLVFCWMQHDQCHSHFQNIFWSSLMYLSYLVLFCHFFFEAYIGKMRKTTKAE
The experiment in a line: LCE enzyme activity-inhibitory test. Format: biochemical. The settings on record: [14C]-malonyl CoA / palmitoyl CoA substrate, 37° C., 90 minutes. The procedure:
Pharmacological Test Example 1 (LCE Enzyme Activity-inhibitory Test)
A test compound was dissolved in dimethyl sulfoxide (DMSO to be 10 mM), and then diluted with DMSO to prepare a 1000-fold concentrated solution of the test concentration. An improved Moon et al's method (J. Biol. Chem., Vol. 276, pp. 45358-45366, 2001) was employed for the LCE enzyme activity-inhibitor test. Concretely, the diluted compound was applied to a 96-well assay plate (Corning, 96-well assay block) in an amount of 1.0 μL/well; 50 μL of a phosphate buffer solution (100 mM potassium phosphate buffer, pH 6.5), and 25 μL of a substrate solution (100 mM potassium phosphate buffer (pH 6.5), 4.0 μM rotenone, 80 μM fatty acid-free bovine serum albumin, 160 μM palmitoyl CoA, 80 μM malonyl CoA, 3.5 μM [^14C]-malonyl CoA (1.92 GBq/mmol, by Amersham)) were added to each well; 25 μL of an enzyme solution (100 mM potassium phosphate buffer (pH 6.5), 100 μg/mL human LCE) was added thereto; the top of the plate was airtightly sealed up; and this was incubated with gently shaking and stirring at 37° C. for 90 minutes. Next, 100 μL of 5 M hydrochloric acid was added to each well, and the assay plate was stirred at room temperature for 5 minutes to stop the enzyme reaction with hydrolyzing the acyl CoA. Next, the enzyme reaction solution in each well was adsorbed by each well of a 96-well GF/C filter plate (Perkin Elmer Unifilter 96 GF/C); the individual wells were washed with water to remove the non-adsorbed malonyl CoA; and the GF/C filter plate was dried at 50° C. for 60 minutes. Next, 30 μL of a scintillator (Perkin Elmer Microscinti 0) was added to each well; then the top of the plate was sealed up; and the fixed [^14C] radioactivity was measured with a microplate scintillation counter (Perkin Elmer TopCount) to be the enzyme activity. The human LCE enzyme-inhibitory activity of the test compound was calculated, based on the radioactivity of the DMSO-added well with no test compound therein as a control.
`COc1cccnc1NC(=O)c1cccc(S(=O)(=O)N2CCCC2)c1` [Example 104, N-(3-methoxypyridin-2-yl)-3-(pyrrolidin-1-ylsulfonyl)benzamide] came in with an IC50 of 160 nM.
As to `O=C(Nc1ncccc1O)c1cccc(S(=O)(=O)N2CCCCC2)c1` [Example 98, N-(3-hydroxypyridin-2-yl)-3-(piperidin-1-ylsulfonyl)benzamide], the IC50 is 260 nM.
The value for `COc1cccnc1NC(=O)c1cccc(S(=O)(=O)C2CCCCC2)c1` [Example 147, 3-(Cyclohexylsulfonyl)-N-(3-methoxypyridin-2-yl)benzamide] was 190 nM; that for `COc1cccnc1NC(=O)c1cccc(S(=O)(=O)N2CC3CCC2CC3)c1` [Example 51, 3-(2-Azabicyclo[2.2.2]oct-2-ylsulfonyl)-N-(3-methoxypyridin-2-yl)benzamide] was 330 nM.
Take `CC(=O)c1ccc(NC(=O)c2cccc(S(=O)(=O)N3CCCCC3)c2)cc1` [Example 92, N-(4-acetylphenyl)-3-(piperidin-1-ylsulfonyl)benzamide]: the IC50 is 9100 nM.
The value for `CC(C)Oc1ccc(NC(=O)c2cccc(S(=O)(=O)N3C[C@H]4C[C@@H]3CO4)c2)cc1` [Example 1, N-(4-isopropoxyphenyl)-3-[(1R,4R)-2-oxa-5-azabicyclo[2.2.1]hept-5-ylsulfonyl]benzamide] was 2200 nM.
The same measure for `O=C(Nc1ccccc1Cl)c1cccc(S(=O)(=O)N2CCCCC2)c1` [Example 89, N-(2-chlorophenyl)-3-(piperidin-1-ylsulfonyl)benzamide]: 1500 nM; for `COc1ccc(S(=O)(=O)N2CCCCC2)cc1C(=O)Nc1ncccc1OC` [Example 156, 2-Methoxy-N-(3-methoxypyridin-2-yl)-5-(piperidin-1-ylsulfonyl)benzamide]: 150 nM.
`CC(C)Oc1ccc(NC(=O)c2cccc(S(=O)(=O)NCC(C)c3nc4ccccc4[nH]3)c2)cc1` (centres unmarked) [Example 25, 3-({[2-(1H-benzimidazol-2-yl)propyl]amino}sulfonyl)-N-(4-isopropoxyphenyl)benzamide] gave an IC50 of 280 nM. Against the preceding compound, the IC50 is about 1.9-fold higher.
The value for `CC(C)Oc1ccc(NC(=O)c2cccc(S(=O)(=O)N3CCN4CCCC4C3)c2)cc1` (centres unmarked) [Example 12, 3-(Octahydropyrrolo[1,2-a]pyrazin-2(1H)-ylsulfonyl)-N-(4-isopropoxyphenyl)benzamide trifluoroacetate] was 6800 nM; that for `COc1ccccc1NC(=O)c1cccc(S(=O)(=O)C2CCCCC2)c1` [Example 145, 3-(Cyclohexylsulfonyl)-N-(2-methoxyphenyl)benzamide] was 210 nM; that for `C=Cc1cnc(NC(=O)c2cccc(S(=O)(=O)N3CCCCC3)c2)c(OC)c1` [Example 107, N-(3-methoxy-5-vinylpyridin-2-yl)-3-(piperidin-1-ylsulfonyl)benzamide] was 520 nM.
The value for `COc1cccnc1NC(=O)c1cccc(S(=O)(=O)c2ccccn2)c1` [Example 120, N-(3-methoxypyridin-2-yl)-3-(pyridin-2-ylsulfonyl)benzamide] was 390 nM; that for `O=C(Nc1ccc(OC(CF)CF)cc1F)c1cccc(S(=O)(=O)c2ccccn2)c1` [Example 124, N-{2-fluoro-4-[2-fluoro-1-(fluoromethyl)ethoxy]phenyl}-3-(pyridin-2-ylsulfonyl)benzamide] was 350 nM; that for `COc1cccnc1NC(=O)c1cccc(S(=O)(=O)N2CC3CCC2C3)c1` (centres unmarked) [Example 49, 3-(2-Azabicyclo [2.2.1]hept-2-ylsulfonyl)-N-(3-methoxypyridin-2-yl)benzamide] was 67 nM.
The same measure for `O=C(Nc1ccc(F)cc1)c1cccc(S(=O)(=O)N2CCCCC2)c1` [Example 71, N-(4-fluorophenyl)-3-(piperidin-1-ylsulfonyl)benzamide]: 14000 nM; for `CC(C)c1ccc(NC(=O)c2cncc(S(=O)(=O)c3ccccc3)c2)cc1` [Example 158, N-(4-isopropylphenyl)-5-(phenylsulfonyl)nicotinamide]: 3400 nM.
